# Experiments:
# [1] = test system: KMS11 (human myeloma cell line); experiment: Cell proliferation assay (CellTiter-Glo), KMS11; format: cell-based; details: Homo sapiens, KMS-11; KMS11 cells, cell proliferation; read-out: KMS11-Luc EC50
# Outline: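 KMS11 cells in IMDM with 10% FBS and sodium pyruvate, seeded at 2000 cells/well on assay day. Compound added at 2× to equal volume of cells, incubated 3 days at 37° C. Viability read by CellTiter-Glo luminescence; EC50 derived.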
# [2] = target: PIM2 (Homo sapiens, UniProt Q9P1W9); experiment: Pim 2 AlphaScreen assay (high ATP); format: biochemical; details: read-out: Pim2 IC50
# Outline: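 This is a bead-based AlphaScreen run at high ATP (11-125× Km) with biotin-Bad peptide (100 nM in the substrate mix), in 50 mM Hepes pH 7.5, 5 mM MgCl2, 0.05% BSA, 0.01% Tween-20, 1 mM DTT and 2.5% DMSO final. After ~2 h the reaction was stopped with EDTA. Phospho-peptide was detected overnight with anti-phospho Ser/Thr antibody on Protein A and streptavidin beads, giving IC50.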
# [3] = target: FGFR3 kinase (Homo sapiens, UniProt P22607); experiment: FGFR3 kinase inhibition assay (LanthaScreen TR-FRET); format: biochemical
# Protocol: FGFR3 Kinase Inhibition Assay
# LanthaScreen™ is the detection of Time-Resolved Fluorescence Resonance Energy Transfer (TR-FRET) using lanthanide chelates to measure interactions between various binding partners. The application of TR-FRET to assay kinase activity was first described by Mathis (1995). A TR-FRET assay was used to measure FGFR3 kinase inhibitory activity. The assay panel was run on a Biomek FX liquid handling workstations. To the assay plates containing […] compound or control solutions, 4.5 μL of buffer A (50 mM TRIS-HCl pH 7.4, 2 mM DTT, 0.02% Tween 20, 0.02 mM Na3VO4, H2O nanpure) including a generic concentration of ATP (2 μM f.c.) was added per well, followed by 4.5 μL of buffer B (4 uM ATP in Buffer A) including a generic concentration of polyEAY (50 nM f.c.), FGFR3 kinase, and divalent cations. Final concentration of kinase and cations were: [FGFR3 kinase]=0.20 nM, [Mg]=3 mM, [Mn]=3 mM. After 1 hour of incubation the kinase reactions were stopped by the addition of 4.5 μL of stop solution D (50 mM EDTA, 20 mM TRIS-HCl pH 7.4, 0.04% NP-40) immediately followed by 4.5 μL of buffer A (50 mM TRIS-HCl pH 7.4, 2 mM DTT, 0.02% Tween 20, 0.02 mM Na3VO4, H2O nanpure) including the Tb-labeled P-20 antibody to give a total detection volume of 18 μL. After an incubation time of 45 min in the dark, the plates were transferred into the Pherastar fluorescence reader for counting. The effect of compound on the enzymatic activity was obtained from the linear progress curves and determined from one reading (end point measurement).
# [4] = target: PDGFRaV561D kinase (Homo sapiens, UniProt P16234, V561D); experiment: PDGFRaV561D kinase inhibition assay (LanthaScreen TR-FRET); format: biochemical; details: read-out: PDGFRa IC50
# Protocol: PDGFRaV561D Kinase Inhibition Assay
# LanthaScreen™ is the detection of Time-Resolved Fluorescence Resonance Energy Transfer (TR-FRET) using lanthanide chelates to measure interactions between various binding partners. The application of TR-FRET to assay kinase activity was first described by Mathis (1995). A TR-FRET assay was used to measure PDGFRaV561D kinase inhibitory activity. The assay panel was run on a Biomek FX liquid handling workstations. To the assay plates containing […] compound or control solutions, 4.5 μL of buffer A (50 mM TRIS-HCl pH 7.4, 2 mM DTT, 0.02% Tween 20, 0.02 mM Na3VO4, H2O nanpure) including a generic concentration of ATP (2 μM f.c.) was added per well, followed by […] of buffer B (4 uM ATP in Buffer A) including a generic concentration of polyEAY (50 nM f.c.), PDGFRaV561D kinase, and divalent cations. Final concentration of kinase and cations were: [PDGFRaV561D kinase]=4.4 nM, [Mn]=10 mM. After 1 hour of incubation the kinase reactions were stopped by the addition of 4.5 μL of stop solution D (50 mM EDTA, 20 mM TRIS-HCl pH 7.4, 0.04% NP-40) immediately followed by 4.5 μL of buffer A (50 mM TRIS-HCl pH 7.4, 2 mM DTT, 0.02% Tween 20, 0.02 mM Na3VO4, H2O nanpure) including the Tb-labeled P-20 antibody to give a total detection volume of […]. After an incubation time of 45 min in the dark, the plates were transferred into the Pherastar fluorescence reader for counting. The effect of compound on the enzymatic activity was obtained from the linear progress curves and determined from one reading (end point measurement).
# Sequence of PDGFRaV561D kinase (P16234 24-1089 V561D): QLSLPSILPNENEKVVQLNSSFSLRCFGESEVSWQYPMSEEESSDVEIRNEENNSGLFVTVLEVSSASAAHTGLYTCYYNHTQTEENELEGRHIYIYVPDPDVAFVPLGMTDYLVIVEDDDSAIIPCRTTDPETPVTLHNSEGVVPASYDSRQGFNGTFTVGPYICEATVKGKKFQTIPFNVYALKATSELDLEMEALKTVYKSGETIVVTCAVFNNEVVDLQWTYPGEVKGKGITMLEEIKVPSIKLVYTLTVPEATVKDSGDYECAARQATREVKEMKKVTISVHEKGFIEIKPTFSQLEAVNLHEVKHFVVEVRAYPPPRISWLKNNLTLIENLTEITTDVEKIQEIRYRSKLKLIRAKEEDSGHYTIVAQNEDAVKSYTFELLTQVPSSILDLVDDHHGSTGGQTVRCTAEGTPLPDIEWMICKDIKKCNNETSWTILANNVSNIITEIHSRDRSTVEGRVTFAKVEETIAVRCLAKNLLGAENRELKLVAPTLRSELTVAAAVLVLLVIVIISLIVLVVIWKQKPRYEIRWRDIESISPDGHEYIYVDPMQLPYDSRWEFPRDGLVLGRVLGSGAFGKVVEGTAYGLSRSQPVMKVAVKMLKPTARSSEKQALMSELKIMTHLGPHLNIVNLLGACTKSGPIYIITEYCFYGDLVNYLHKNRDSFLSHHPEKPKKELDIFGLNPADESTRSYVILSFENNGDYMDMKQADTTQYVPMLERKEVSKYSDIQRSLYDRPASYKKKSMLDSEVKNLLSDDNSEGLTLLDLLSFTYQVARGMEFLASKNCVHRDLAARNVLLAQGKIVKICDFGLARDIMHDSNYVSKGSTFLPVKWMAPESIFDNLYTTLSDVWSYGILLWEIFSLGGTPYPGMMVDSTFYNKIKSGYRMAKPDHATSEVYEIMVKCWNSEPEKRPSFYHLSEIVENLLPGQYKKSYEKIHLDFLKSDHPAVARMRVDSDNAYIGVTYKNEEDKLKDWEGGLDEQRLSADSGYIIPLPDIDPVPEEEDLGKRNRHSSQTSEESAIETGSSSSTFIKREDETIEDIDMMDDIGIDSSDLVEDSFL
# Sequence of FGFR3 kinase (P22607 23-806): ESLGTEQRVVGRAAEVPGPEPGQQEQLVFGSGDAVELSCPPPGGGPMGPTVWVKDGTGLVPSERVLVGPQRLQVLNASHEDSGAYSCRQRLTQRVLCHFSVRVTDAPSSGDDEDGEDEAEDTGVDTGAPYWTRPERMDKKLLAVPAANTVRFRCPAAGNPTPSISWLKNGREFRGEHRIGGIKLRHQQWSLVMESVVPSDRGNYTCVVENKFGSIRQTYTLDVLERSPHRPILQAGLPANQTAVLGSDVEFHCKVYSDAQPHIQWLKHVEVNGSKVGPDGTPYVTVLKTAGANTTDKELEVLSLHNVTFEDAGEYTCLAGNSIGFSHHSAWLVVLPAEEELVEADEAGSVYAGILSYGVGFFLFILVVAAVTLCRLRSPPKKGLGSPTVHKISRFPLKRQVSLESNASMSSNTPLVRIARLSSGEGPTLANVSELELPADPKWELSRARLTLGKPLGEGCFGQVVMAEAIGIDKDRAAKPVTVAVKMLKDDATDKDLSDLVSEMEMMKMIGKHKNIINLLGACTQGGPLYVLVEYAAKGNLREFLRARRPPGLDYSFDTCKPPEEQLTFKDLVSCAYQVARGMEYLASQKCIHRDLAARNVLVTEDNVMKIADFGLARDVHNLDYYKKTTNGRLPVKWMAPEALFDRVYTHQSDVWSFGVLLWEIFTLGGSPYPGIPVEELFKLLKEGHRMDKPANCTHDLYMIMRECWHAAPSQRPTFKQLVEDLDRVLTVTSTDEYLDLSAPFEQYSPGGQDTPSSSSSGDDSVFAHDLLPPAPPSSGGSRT
# Sequence of PIM2 (Q9P1W9 whole entry): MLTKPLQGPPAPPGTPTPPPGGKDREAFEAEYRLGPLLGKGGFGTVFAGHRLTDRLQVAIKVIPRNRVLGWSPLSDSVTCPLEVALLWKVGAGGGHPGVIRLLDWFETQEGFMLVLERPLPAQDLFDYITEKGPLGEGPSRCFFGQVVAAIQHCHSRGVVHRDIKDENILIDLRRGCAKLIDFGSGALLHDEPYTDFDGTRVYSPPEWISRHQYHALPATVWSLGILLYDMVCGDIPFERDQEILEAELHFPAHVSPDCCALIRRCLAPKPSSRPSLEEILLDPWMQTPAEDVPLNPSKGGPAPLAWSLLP
EC50 [1],IC50 [2],IC50 [3],IC50 [4],SMILES
420 nM,8.5 nM,> 10000 nM,630 nM,"C[C@H]1O[C@@H](c2ccncc2NC(=O)c2ccc(F)c(-c3c(F)cccc3F)n2)C[C@@H](N)[C@]1(C)O [Example 219, N-(4-((2R,4R,5S,6R)-4-amino-5-hydroxy-5,6-dimethyltetrahydro-2H-pyran-2-yl)pyridin-3-yl)-6-(2,6-difluorophenyl)-5-fluoropicolinamide]"
5310 nM,549 nM,2400 nM,1300 nM,"CC(C)(C)[C@@H]1O[C@H](c2ccncc2NC(=O)c2nc(-c3ccccc3)cnc2N)C[C@@H](N)[C@H]1O [Example 227, 3-amino-N-(4-((2S,4R,5R,6S)-4-amino-6-tert-butyl-5-hydroxytetrahydro-2H-pyran-2-yl)pyridin-3-yl)-6-phenylpyrazine-2-carboxamide]"
2060 nM,120 nM,320 nM,37 nM,"C[C@H]1O[C@@H](c2ccncc2NC(=O)c2nc(-c3ccccc3)cnc2N)C[C@@H](N)[C@]1(C)O [Example 228, 3-amino-N-(4-((2R,4R,5S,6R)-4-amino-5-hydroxy-5,6-dimethyltetrahydro-2H-pyran-2-yl)pyridin-3-yl)-6-phenylpyrazine-2-carboxamide]"
5870 nM,3310 nM,3400 nM,1000 nM,"C[C@@H]1O[C@H](c2ccncc2NC(=O)c2nc(-c3ccccc3)cnc2N)C[C@H](N)[C@@]1(C)O [Example 229, 3-amino-N-(4-((2S,4S,5R,6S)-4-amino-5-hydroxy-5,6-dimethyltetrahydro-2H-pyran-2-yl)pyridin-3-yl)-6-phenylpyrazine-2-carboxamide]"
380 nM,2770 nM,> 10000 nM,7300 nM,"CC(C)[C@@H]1O[C@H](c2ccncc2NC(=O)c2nc(-c3ccccc3)cnc2N)C[C@H](N)[C@H]1O [Example 240, 3-amino-N-(4-((2S,4S,5R,6S)-4-amino-5-hydroxy-6-isopropyltetrahydro-2H-pyran-2-yl)pyridin-3-yl)-6-phenylpyrazine-2-carboxamide]"
1970 nM,64.9 nM,710 nM,280 nM,"CC(C)(C)[C@H]1O[C@@H](c2ccncc2NC(=O)c2nc(-c3ccccc3)cnc2N)C[C@H](N)[C@@H]1O [Example 286, 3-amino-N-(4-((2R,4S,5S,6R)-4-amino-6-tert-butyl-5-hydroxytetrahydro-2H-pyran-2-yl)pyridin-3-yl)-6-phenylpyrazine-2-carboxamide]"
340 nM,19.3 nM,1600 nM,81 nM,"CC(C)[C@@H]1C[C@H](N)C[C@H](c2ccncc2NC(=O)c2nc(-c3ccccc3)cnc2N)O1 [Example 291, 3-amino-N-(4-((2R,4S,6S)-4-amino-6-isopropyltetrahydro-2H-pyran-2-yl)pyridin-3-yl)-6-phenylpyrazine-2-carboxamide]"
700 nM,764 nM,> 10000 nM,4400 nM,"CC(C)[C@H]1C[C@@H](N)C[C@@H](c2ccncc2NC(=O)c2nc(-c3ccccc3)cnc2N)O1 [Example 292, 3-amino-N-(4-((2S,4R,6R)-4-amino-6-isopropyltetrahydro-2H-pyran-2-yl)pyridin-3-yl)-6-phenylpyrazine-2-carboxamide]"
990 nM,3650 nM,210 nM,810 nM,"CCC[C@H]1O[C@@H](c2ccncc2NC(=O)c2nc(-c3ccccc3)cnc2N)C[C@@H](O)[C@@H]1O [Example 340, 3-amino-N-(4-((2R,4R,5S,6R)-4,5-dihydroxy-6-propyltetrahydro-2H-pyran-2-yl)pyridin-3-yl)-6-phenylpyrazine-2-carboxamide]"
10000 nM,> 25000 nM,480 nM,880 nM,"Nc1ncc(-c2ccccc2)nc1C(=O)Nc1cnccc1[C@H]1C[C@@H](O)[C@H](O)[C@@H](CO)O1 [Example 341, 3-amino-N-(4-((2R,4R,5S,6R)-4,5-dihydroxy-6-(hydroxymethyl)tetrahydro-2H-pyran-2-yl)pyridin-3-yl)-6-phenylpyrazine-2-carboxamide]"
770 nM,1370 nM,1600 nM,140 nM,"CC[C@@H]1O[C@H](c2ccncc2NC(=O)c2nc(-c3ccccc3)cnc2N)C[C@H](N)[C@H]1O [Example 342, 3-amino-N-(4-((2S,4S,5R,6S)-4-amino-6-ethyl-5-hydroxytetrahydro-2H-pyran-2-yl)pyridin-3-yl)-6-phenylpyrazine-2-carboxamide]"
150 nM,49.1 nM,35 nM,12 nM,"CC[C@H]1O[C@@H](c2ccncc2NC(=O)c2nc(-c3ccccc3)cnc2N)C[C@@H](N)[C@@H]1O [Example 343, 3-amino-N-(4-((2R,4R,5S,6R)-4-amino-6-ethyl-5-hydroxytetrahydro-2H-pyran-2-yl)pyridin-3-yl)-6-phenylpyrazine-2-carboxamide]"
870 nM,106 nM,440 nM,110 nM,"C[C@]1(O)[C@H](N)C[C@H](c2ccncc2NC(=O)c2nc(-c3ccccc3)cnc2N)O[C@@H]1C1CC1 [Example 344, 3-amino-N-(4-((2R,4R,5S,6R)-4-amino-6-cyclopropyl-5-hydroxy-5-methyltetrahydro-2H-pyran-2-yl)pyridin-3-yl)-6-phenylpyrazine-2-carboxamide]"
3170 nM,7810 nM,> 10000 nM,7400 nM,"CC[C@@H]1O[C@H](c2ccncc2NC(=O)c2nc(-c3ccccc3)cnc2N)C[C@H](N)[C@@]1(C)O [Example 345, 3-amino-N-(4-((2S,4S,5R,6S)-4-amino-6-ethyl-5-hydroxy-5-methyltetrahydro-2H-pyran-2-yl)pyridin-3-yl)-6-phenylpyrazine-2-carboxamide]"
470 nM,62.7 nM,180 nM,72 nM,"Nc1ncc(-c2ccccc2)nc1C(=O)Nc1cnccc1[C@H]1C[C@@H](N)[C@H](O)[C@@H](C2CC2)O1 [Example 346, 3-amino-N-(4-((2R,4R,5S,6R)-4-amino-6-cyclopropyl-5-hydroxytetrahydro-2H-pyran-2-yl)pyridin-3-yl)-6-phenylpyrazine-2-carboxamide]"
2430 nM,8020 nM,8800 nM,9000 nM,"C[C@@]1(O)[C@@H](N)C[C@@H](c2ccncc2NC(=O)c2nc(-c3ccccc3)cnc2N)O[C@H]1C1CC1 [Example 347, 3-amino-N-(4-((2S,4S,5R,6S)-4-amino-6-cyclopropyl-5-hydroxy-5-methyltetrahydro-2H-pyran-2-yl)pyridin-3-yl)-6-phenylpyrazine-2-carboxamide]"

# — patent US20130109682A1, “CYCLIC ETHER COMPOUNDS USEFUL AS KINASE INHIBITORS” (NOVARTIS AG, priority 2010, published 2013)
